Values joined by “and” are separate entries in the source; they are usually repeats but may differ in a detail not shown here. Equal values may be shown once. “Also recorded” adds a separate entry of the source. Read-outs that look alike come from different tables or passages of the source. Blank lines part the entries; values can stand above or below the molecule they belong to.
What was measured:
SIRT2 [1] = conditions: substrate ZMAL; read-out: SIRT2 IC50 (series A, compounds 1-26); cited from earlier work
SIRT2 [2] = conditions: HPLC assay, H3K9Ac; read-out: SIRT2 IC50 (series C, compounds 112-116); cited from earlier work
recombinant human HSP70 = biological target: T1, recombinant human HSP70 (Homo sapiens, UniProt P0DMV8); assay: HSP70 ATPase catalytic activity, Malachite green assay; format: biochemical; conditions: 300 μM final concentration; read-out: percentage of inhibition of HSP70 ATPase activity
T1 construct: made in house; host or cells: E. coli BL21 (DE3)
Method: The impact of selected molecules on the ATPase catalytic activity of an in-house produced recombinant human HSP70 protein was determined using the Malachite green assay, incubating the recombinant protein with ATP in the presence or absence of different compounds (300 μM final concentration). The percentage of inhibition exerted by the selected compounds on the ATPase activity was as follow: 1a, 49 ± 2%; 2a, 40 ± 1%; 3a, 44 ± 4%; 4a, 20 ± 1%; 5a, 19 ± 1%; 6a, 37 ± 1%; 7a, 47 ± 1%.
The recombinant human Hsp70 protein was produced in BL21 (DE3) E. coli transformed with the pET-6xHis/hHSP70 plasmid containing the coding sequence for human HSP70 (hHSPA1A gene, NM_005345.6; purchased from Vector Builder, Vector ID VB210930). This vector allowed for producing an N-terminal 6xHis tag fusion HSP70 protein.
BL21 cells containing the vector were initially grown in Luria−Bertani medium at 37 °C (Merck, Milan, Italy) with 200 μg/mL ampicillin until the culture reached an OD600 of 0.5. The 6xHis/hHSP70 fusion protein was expressed by adding isopropyl-β-d-thiogalactopyranoside (final concentration of 0.2 mM) and incubating the bacteria culture at 37 °C for 2 h. The cells were harvested by centrifugation and then lysed by sonication in 20 mM Tris-HCl, 250 mM KCl, and 10 mM MgCl2 pH 7.4; after the addition of Triton X-100 to a final concentration of 1% and incubation for 30 min at 4 °C, the lysates were centrifugated at 10,000× g for 15 min. The HSP70 protein was purified by affinity chromatography using His GraviTrap TALON columns (Euroclone, Milan, Italy). Briefly, after loading the lysate, the resin was washed twice with 20 mM Tris-HCl, 250 mM KCl, and 10 mM MgCl2 pH 7.4 and twice with the same buffer containing 10 mM of imidazole. The elution of the recombinant protein was obtained with 150 mM imidazole, pH 7.4. Imidazole was removed from the recombinant protein through overnight dialysis using a dialysis tubing membrane (Merck KGaA, Frankfurter Strasse 250 Darmstadt, Germany) and the protein was concentrated using a Centricon (Merck Millipore, 11 Avenida Norte Bis No. 513, San Salvador, El Salvador). The protein concentrations were determined using the Bradford assay (Bio-Rad Laboratories, Inc. Italy, Segrate) and the protein purity was monitored using SDS-PAGE.
The ATPase catalytic activity of recombinant human HSP70 was measured with a colorimetric assay using the malachite green reagent. Briefly, 6 µM of HSP70 protein was incubated for 30 min at 37 °C with 5 mM ATP in 20 mM Tris-HCl, 250 mM KCl, 10 mM MgCl2, and 0.02%TritonX-100, pH 7.4. The released phosphates were quantified by adding the malachite green reagent to an aliquot of this incubation and the absorbance was recorded at 620 nm using a Clariostar plate reader. The effects of thiazoles-based molecules on the ATPase catalytic activity were measured by adding (or not) the different molecules to the incubation (at 300 µM final concentration). To correct for non-enzymatic hydrolysis of ATP and for a specific absorbance of molecules, the absorbance signal of identically treated samples lacking the HSP70 protein was subtracted.

recombinant SIRT2 = biological target: T2, recombinant SIRT2 (Homo sapiens, UniProt Q8IXJ6); assay: SIRT2 deacetylase activity, recombinant SIRT2 incubated with acetylated peptide H3K9Ac and NAD+; format: biochemical; conditions: recombinant protein
T2 sequence (Q8IXJ6 1-389): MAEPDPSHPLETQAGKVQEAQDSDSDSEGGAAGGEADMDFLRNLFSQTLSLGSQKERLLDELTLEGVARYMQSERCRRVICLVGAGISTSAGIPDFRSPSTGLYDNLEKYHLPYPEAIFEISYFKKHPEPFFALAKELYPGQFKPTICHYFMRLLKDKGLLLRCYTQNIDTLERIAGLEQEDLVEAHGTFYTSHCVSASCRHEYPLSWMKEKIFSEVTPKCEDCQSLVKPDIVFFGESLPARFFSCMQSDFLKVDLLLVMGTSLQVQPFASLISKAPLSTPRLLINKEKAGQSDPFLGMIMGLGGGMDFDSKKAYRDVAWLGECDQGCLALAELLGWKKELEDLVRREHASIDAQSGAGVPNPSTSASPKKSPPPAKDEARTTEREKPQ
Method: The effect of the in silico screened compounds on the SIRT2 deacetylase activity was evaluated thanks to the incubation of recombinant SIRT2 with an acetylated peptide (H3K9Ac, a peptide acetylated on Lys 9) and NAD^+.

SIRT6 = SIRT6 (Homo sapiens, UniProt Q8N6T7); assay: SIRT6 deacetylase and depalmitoylase activity (H3K9Ac / H3K9Palm peptides); format: biochemical
Method: The synthesis of peptides H3K9Ac and H3K9Palm and the evaluation of the SIRT2 deacetylase activity and of the SIRT6 deacetylase and depalmitoylase activity were carried out as previously described. The IC50 of compound 1a was determined as in [43].

[3] = system: SIRT2 activity (acetylation status of α-tubulin); assay: α-tubulin acetylation in cultured CFBE41o- cells (immunoblotting); format: cell-based, human; conditions: 10 μM
Method: Finally, experiments were performed to determine whether compound 1a was active in intact cells. The acetylation status of α-tubulin, a known target of SIRT2 deacetylase activity, was used to monitor SIRT2 activity in human cells.
The cells were incubated with 10 μM of compound 1a or the respective amount of vehicle DMSO, and were used for protein lysate generation; then, the total and acetylated α-tubulin levels were detected by Immunoblotting. The levels of acetylated α-tubulin were quantified, normalized to the total α-tubulin, and expressed as percentage increase vs. vehicle-treated cells. One representative Western blot analysis and the mean ± SD of 3 quantifications are shown. **, p < 0.01.
The bronchial epithelial CFBE41o- cells were cultured as in [20]. […] The proteins were subsequently transferred to nitrocellulose membranes and the expression of the total or acetylated α-tubulin was detected using the following primary antibodies: anti-α-tubulin (rabbit polyclonal, #2125, Cell Signalling Technology, Danvers, MA, USA) and anti-acetylated α-tubulin (rabbit polyclonal, #5335, Cell Signalling Technology). Following incubation with the appropriate secondary antibodies and Amersham ECL detection (Cytiva, Milano, Italy), the band intensity was quantified using the ChemiDoc imaging system (Bio-Rad, Milan, Italy). α-tubulin acetylation was normalized to the total α-tubulin levels.

SIRT2 [4] = conditions: substrate RHKK(Ac)-AMC; read-out: SIRT2 IC50 (series B, compounds 27-111); cited from earlier work

T1 sequence (P0DMV8 whole entry): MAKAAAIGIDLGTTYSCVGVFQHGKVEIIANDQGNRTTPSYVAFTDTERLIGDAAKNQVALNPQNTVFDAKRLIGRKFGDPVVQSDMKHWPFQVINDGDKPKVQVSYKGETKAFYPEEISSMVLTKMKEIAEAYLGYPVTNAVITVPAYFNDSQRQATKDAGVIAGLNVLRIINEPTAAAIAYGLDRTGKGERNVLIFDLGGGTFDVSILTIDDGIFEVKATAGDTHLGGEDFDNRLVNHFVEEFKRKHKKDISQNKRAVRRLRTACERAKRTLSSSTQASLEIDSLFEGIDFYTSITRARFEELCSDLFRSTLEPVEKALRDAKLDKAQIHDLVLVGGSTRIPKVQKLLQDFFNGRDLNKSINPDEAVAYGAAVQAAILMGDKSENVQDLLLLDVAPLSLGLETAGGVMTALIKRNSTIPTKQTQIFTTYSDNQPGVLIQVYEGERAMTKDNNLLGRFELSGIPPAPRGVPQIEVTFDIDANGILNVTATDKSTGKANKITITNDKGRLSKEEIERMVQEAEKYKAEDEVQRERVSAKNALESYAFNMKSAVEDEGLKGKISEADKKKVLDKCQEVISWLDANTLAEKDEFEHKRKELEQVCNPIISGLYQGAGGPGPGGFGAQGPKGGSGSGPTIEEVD
Sequence of SIRT6 (Q8N6T7 whole entry): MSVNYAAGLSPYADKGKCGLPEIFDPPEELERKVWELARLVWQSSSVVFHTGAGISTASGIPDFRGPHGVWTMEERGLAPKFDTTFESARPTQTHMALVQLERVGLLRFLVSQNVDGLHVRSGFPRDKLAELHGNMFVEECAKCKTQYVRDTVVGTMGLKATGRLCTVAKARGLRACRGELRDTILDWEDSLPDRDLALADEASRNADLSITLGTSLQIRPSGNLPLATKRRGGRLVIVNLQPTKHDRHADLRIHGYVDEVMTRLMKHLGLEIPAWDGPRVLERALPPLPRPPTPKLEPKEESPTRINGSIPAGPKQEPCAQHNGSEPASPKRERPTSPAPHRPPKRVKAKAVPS

SMILES: Cc1cc(C)nc(SCC(=O)Nc2nnc(Cc3ccc(Cl)cc3)s2)n1 [Compound 23]
IC50 (SIRT2 [1]): 30.9 µM

SMILES: O=C(On1nnc2ncccc21)c1c[nH]c2ccc(Br)cc12 [Compound 116]
IC50 (SIRT2 [2]): 77.1 µM

SMILES: Cc1cc(C)nc(SC(C)C(=O)Nc2ncc(Cc3cccc4ccccc34)s2)n1 (stereo not shown) [Compound 12]
IC50 (SIRT2 [1]): 9.77 µM

SMILES: Cc1nc(SCC(=O)Nc2ncc(Cc3cccc4ccccc34)s2)nc(C)c1C [Compound 19]
IC50 (SIRT2 [1]): 15 µM

SMILES: Cc1ccc2[nH]cc(C(=O)On3nnc4ccccc43)c2c1 [Compound 115]
IC50 (SIRT2 [2]): 74 µM

inhibition at 300 µM (recombinant human HSP70): 44 ± 4% | inhibition at 150 µM (recombinant SIRT2): 60 ± 8%
SMILES: CSc1cccc(Nc2nc(-c3cccc(Cl)c3)cs2)c1 [Compound 3a]

SMILES: CCOc1ccc2nc(NC(=O)CSc3nc(C)cc(C)n3)sc2c1 [Compound 26]
IC50 (SIRT2 [1]): 207 µM and > 167 µM

SMILES: CSc1cccc(Nc2nc(-c3nc4ccccc4s3)cs2)c1 [Compound 1a]
inhibition at 300 µM (recombinant human HSP70): 49 ± 2% | effect on SIRT6 deacetylase activity (SIRT6): did not significantly affect | selectivity over SIRT6 (SIRT6): selective over SIRT6 | effect on SIRT6 depalmitoylase activity (SIRT6; palmitoylated peptide H3K9Palm): did not significantly affect | inhibition at 150 µM (recombinant SIRT2): 72 ± 8% | IC50 (recombinant SIRT2): 45.1 ± 5 µM | α-tubulin acetylation (acetylated normalized to total α-tubulin, vs vehicle) [3]: higher levels of the acetylated SIRT2 substrate; also recorded: increased α-tubulin acetylation

SMILES: Cc1cccc(Cc2cnc(NC(=O)CSc3nc(C)cc(C)n3)s2)c1 [Compound 3]
IC50 (SIRT2 [1]): 1.64 µM

SMILES: Cc1cc(C)nc(SCC(=O)Nc2ncc(Cc3cccc4cc(Cl)ccc34)s2)n1 [Compound 16]
IC50 (SIRT2 [1]): 0.48 µM

SMILES: Cc1cc(C)nc(SCC(=O)Nc2ncc(Cc3c(C)ccc4ccccc34)s2)n1 [Compound 14]
IC50 (SIRT2 [1]): 0.31 µM

inhibition at 300 µM (recombinant human HSP70): 20 ± 1% | inhibition at 150 µM (recombinant SIRT2): 60 ± 5%
SMILES: CSc1cccc(Nc2nc(-c3ccc4c(c3)CC(=O)N4)cs2)c1 [Compound 4a]

SMILES: Cc1cc(C)nc(SCC(=O)Nc2ncc(Cc3ccc(Cl)cc3)s2)n1 [Compound 4]
IC50 (SIRT2 [1]): 3.4 µM

inhibition at 300 µM (recombinant human HSP70): 19 ± 1% | inhibition at 150 µM (recombinant SIRT2): 76 ± 9%
SMILES: CSc1cccc(Nc2nc(-c3ccc4[nH]c(=O)sc4c3)cs2)c1 [Compound 5a]

SMILES: O=C(On1nnc2ccccc21)c1cc[nH]c1 [Compound 112]
IC50 (SIRT2 [2]): 56.6 µM

SMILES: Cc1cc(C)nc(SCC(=O)Nc2nnc(Cc3cccc4ccccc34)s2)n1 [Compound 25]
IC50 (SIRT2 [1]): 1.89 µM

SMILES: Cc1cc(C)nc(SCC(=O)Nc2ncc(C(=O)Nc3cccc4ccccc34)s2)n1 [Compound 9]
IC50 (SIRT2 [1]): 33 µM

SMILES: O=C(CSc1cccc(O)c1)Nc1ncc(Cc2cccc3ccccc23)s1 [Compound 7]
IC50 (SIRT2 [1]): 143 µM

SMILES: CCCc1cc(O)nc(SCC(=O)Nc2ncc(Cc3cccc4ccccc34)s2)n1 [Compound 21]
IC50 (SIRT2 [1]): 127 µM

SMILES: O=C(On1nnc2ccccc21)c1ccc[nH]1 [Compound 113]
IC50 (SIRT2 [2]): 42.7 µM

SMILES: Cc1cc(C)nc(SCC(=O)Nc2nnc(Cc3ccc(Br)cc3)s2)n1 [Compound 24]
IC50 (SIRT2 [1]): 168 µM

inhibition at 300 µM (recombinant human HSP70): 40 ± 1% | % Inhibition SIRT2 (at 150 μM) (recombinant SIRT2): 100 ± 9% | inhibition at 150 µM (recombinant SIRT2): > 90% | IC50 (recombinant SIRT2): 17.3 ± 2 µM
SMILES: CCc1ccc(Nc2nc(-c3ccc(Cl)cc3)cs2)cc1SC [Compound 2a]

inhibition at 300 µM (recombinant human HSP70): 37 ± 1% | % Inhibition SIRT2 (at 150 μM) (recombinant SIRT2): 92 ± 7% | inhibition at 150 µM (recombinant SIRT2): > 90% | IC50 (recombinant SIRT2): 27.3 ± 4.7 µM
SMILES: O=C1Cc2cc(-c3csc(Nc4cccc(SC(F)(F)F)c4)n3)ccc2N1 [Compound 6a]

inhibition at 150 µM (recombinant SIRT2): 100 ± 5%
SMILES: Cc1cc(C)nc(SCC(=O)Nc2ncc(Cc3cccc4ccccc34)s2)n1 [Compound 10, SirReal2]

SMILES: Cc1cc(C)nc(SCC(=O)Nc2ncc(Cc3cccc4ccc(Br)cc34)s2)n1 [Compound 15]
IC50 (SIRT2 [1]): 0.21 µM

SMILES: Cc1cc(C)cc(SCC(=O)Nc2ncc(Cc3cccc4ccccc34)s2)c1 [Compound 8]
IC50 (SIRT2 [1]): 207 µM and > 167 µM

SMILES: Cc1cc(C)nc(SC(C)C(=O)Nc2ncc(Cc3cccc4ccccc34)s2)n1 (stereo not shown) [Compound 13]
IC50 (SIRT2 [1]): 0.26 µM

SMILES: CCc1cc(CC)nc(SCC(=O)Nc2ncc(Cc3cccc4ccccc34)s2)n1 [Compound 18]
IC50 (SIRT2 [1]): 45.6 µM

SMILES: O=C(CSc1ncccn1)Nc1ncc(Cc2cccc3ccccc23)s1 [Compound 17]
IC50 (SIRT2 [1]): 2.34 µM and 2.34 to 16.8 µM

SMILES: CCOc1cccc(Cc2cnc(NC(=O)CSc3nc(C)cc(C)n3)s2)c1 [Compound 5]
IC50 (SIRT2 [1]): 1.33 µM

SMILES: Cc1cc(C)nc(SCC(=O)Nc2ncc(Cc3ccc(-c4ccccc4)cc3)s2)n1 [Compound 6]
IC50 (SIRT2 [1]): 164 µM and > 167 µM

SMILES: O=c1c2c3c(sc2ncn1Cc1cccc2cccnc12)CC(NCCC1CCCCC1)CC3 (stereo not shown) [Compound 95]
IC50 (SIRT2 [4]): 5.85 µM

SMILES: O=c1c2c3c(sc2ncn1Cc1cccc2cccnc12)CC(NCc1ccccn1)CC3 (stereo not shown) [Compound 73]
IC50 (SIRT2 [4]): 2.61 µM

inhibition at 300 µM (recombinant human HSP70): 47 ± 1% | % Inhibition SIRT2 (at 150 μM) (recombinant SIRT2): 93 ± 9% | inhibition at 150 µM (recombinant SIRT2): > 90% | IC50 (recombinant SIRT2): 19.9 ± 2.1 µM
SMILES: CCn1c(=O)/c(=C2\Sc3ccccc3N2C)s/c1=C\c1ccccn1 [Compound 7a, YM-08]

From paper PMC10535842, “Novel Thiazole-Based SIRT2 Inhibitors Discovered via Molecular Modelling Studies and Enzymatic Assays” (Pharmaceuticals, 2023)
